The text below walks through data of patent publication US20250387375A1, “SOFALCONE DERIVATIVES AND MEDICAL USE THEREOF” (KAOHSIUNG MEDICAL UNIVERSITY, priority 2024, published 2025).

Data set [1] relates to TxB2 formation in human platelet suspensions. In words: Measurement of platelet TxB2 level after arachidonic acid. Format: cell-based. The conditions noted are these: AA 100 μM; human platelet suspension. Here is the method:
(§1) FIGS. 6A and 6B show the effect of sofalcone and its derivatives on TxB2 and PGE2 productions induced by arachidonic acid (AA). […] After human platelet suspension was pretreated with dimethyl sulfoxide (DMSO) or sofalcone (SFC), sofalcone derivative 3, and sofalcone derivative 30, arachidonic acid (100 μM) was added to stimulate the productions of arachidonic acid metabolites TxB2 and PGE2. Data are presented as mean±standard error of the mean (n>5). Compared with the control group, *P<0.05, **P<0.01, ***P<0.001. ASA: Aspirin.
(§2) Blood samples were collected from healthy donors, and acid-citrate-dextrose (ACD) solution was used as an anticoagulant. The blood samples were centrifuged to obtain platelets, and residual plasma was removed by washing to prepare platelet suspension.
(§3) The compound to be tested was added to the platelet suspension and reacted for 3 minutes at 37° C. under stirring (1200 rpm), then arachidonic acid (AA) (100 μM) was added to react for 4 minutes, and finally EDTA (5 mM) was added to terminate the reaction. The above sample was centrifuged at 13,000 rpm for 1 minute at 4° C. and the supernatant was collected. The concentrations of TxB2 and PGE2 in the supernatant were measured respectively using enzyme immunoassay kits (TxB2 ELISA kit and PGE2 ELISA kit; Cayman Chemical Company).

Data set [2] deals with human platelet suspension (platelet aggregation caused by TxA2 agonist U46619). Kind of data set: Platelet aggregation reaction test, U46619-induced. Format: cell-based. The method in brief:
(§4)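 Washed platelets from healthy human donors (ACD-anticoagulated blood) were preincubated with compound for 3 min at 37 °C under 1200 rpm stirring. Aggregation was then triggered with U46619 or collagen and followed for 5 min by light transmission aggregometry. Percent aggregation came from the change in transmission before and after stimulation.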

The subject of data set [3] is FeCl3-induced carotid artery thrombosis. Kind of data set: Ferric chloride-induced carotid artery thrombosis in mice. The class given is in vivo, BALB/c mice. Conditions: oral gavage. Here is the method: Mice were orally administered by gavage with sofalcone (SFC, once daily for 4 days), derivative 17, or aspirin (ASA) (single administration only). The mice are then treated with ferric chloride solution to induce carotid artery thrombosis, and an ultrasound imaging system was used to monitor the time required for the thrombus to block the carotid artery (occlusion time). Data are presented as mean±standard […] error of the mean (n≥6). Compared with the control group, *P<0.05, ***P<0.001. In this experiment, a ferric chloride-induced arterial injury was used to evaluate the antithrombotic effect of the to-be-tested compound. The to-be-tested compound was orally administered by gavage to BALB/c mice aged approximately 6-8 weeks. Then, the mice were anesthetized with isoflurane, the right carotid artery was exposed through surgery, and filter paper (2×4 mm^2) containing 8.5% ferric chloride was attached to the right carotid artery for 3 minutes. After removing the filter paper, remaining ferric chloride was wiped off with cotton balls soaked with physiological saline, and an ultrasonic imaging system (VEVO 2100 system, VisualSonics) equipped with a Doppler flow probe (MS400, 18-38 MHz) was used to monitor the blood flow of the right carotid artery. The occlusion time was determined when the blood flow completely stopped for at least 1 minute. If the occlusion time was longer than 30 minutes, it was considered the end point of the experiment.

Data set [4] relates to normal hemostatic function (tail bleeding). In words: Mouse bleeding test (tail bleeding time). The conditions noted are these: mice, oral gavage. The class given is in vivo, BALB/c mice. Here is the method: Mice were orally administered by gavage with sofalcone (SFC, once daily for 4 days), derivative 17, or aspirin (ASA) (single administration only). Then the mouse's tail was transected and the tail bleeding time was recorded. Data are presented as mean±standard error of the mean (n≥6). Compared with the control group, ***P<0.001. n.s.: No significant difference. In the present invention, the effect of the to-be-tested compound on normal hemostasis was evaluated by docking off the tail ends of the mice to cause bleeding. The to-be-tested compound was orally administered to BALB/c mice aged approximately 6-8 weeks by gavage. Then, the mice were anesthetized with isoflurane, and 2 mm of the distal end of their tails were excised. The tails of the mice were immersed in physiological saline at 37° C., and the bleeding time was observed. The determination of bleeding time was: the time required from the time the mouse tail was cut off until the bleeding completely stopped.

In data set [5] the test system is PGE2 formation in human platelet suspensions. In words: Measurement of platelet PGE2 level after arachidonic acid. The class given is cell-based. Conditions: AA 100 μM; human platelet suspension. The method, then:
as §1, §2, §3

In data set [6] the test system is human platelet suspension (platelet aggregation caused by collagen). Kind of data set: Platelet aggregation reaction test, collagen-induced. Format: cell-based. Conditions: read-out: Collagen IC 50. The method in brief: as §4
The next data set addresses T1, human recombinant COX1 (Homo sapiens, UniProt P23219).
T1 construct: purchased Cayman Chemical Company
In words: COX1 enzyme activity assay. The class given is biochemical. Here is the method:
(§5) COX1 and COX2 enzyme activities were analyzed by using a human COX inhibitor screening assay kit (Cayman Chemical Company). After allowing the to-be-tested compound, human recombinant COX1 or COX2 enzyme and heme to stand at 37° C. for 15 minutes, AA (10 μM) was added to react for 2 minutes. Then, stannous chloride was added to reduce PGH2, the product of the above COX reaction, to PGF2α. Finally, the PGF2α level in the sample was measured by using enzyme immunoassay, and the inhibition percentage was calculated.

The next data set addresses T2, human recombinant COX2 (Homo sapiens, UniProt P35354).
T2 construct: purchased Cayman Chemical Company
T2 sequence (P35354 18-604): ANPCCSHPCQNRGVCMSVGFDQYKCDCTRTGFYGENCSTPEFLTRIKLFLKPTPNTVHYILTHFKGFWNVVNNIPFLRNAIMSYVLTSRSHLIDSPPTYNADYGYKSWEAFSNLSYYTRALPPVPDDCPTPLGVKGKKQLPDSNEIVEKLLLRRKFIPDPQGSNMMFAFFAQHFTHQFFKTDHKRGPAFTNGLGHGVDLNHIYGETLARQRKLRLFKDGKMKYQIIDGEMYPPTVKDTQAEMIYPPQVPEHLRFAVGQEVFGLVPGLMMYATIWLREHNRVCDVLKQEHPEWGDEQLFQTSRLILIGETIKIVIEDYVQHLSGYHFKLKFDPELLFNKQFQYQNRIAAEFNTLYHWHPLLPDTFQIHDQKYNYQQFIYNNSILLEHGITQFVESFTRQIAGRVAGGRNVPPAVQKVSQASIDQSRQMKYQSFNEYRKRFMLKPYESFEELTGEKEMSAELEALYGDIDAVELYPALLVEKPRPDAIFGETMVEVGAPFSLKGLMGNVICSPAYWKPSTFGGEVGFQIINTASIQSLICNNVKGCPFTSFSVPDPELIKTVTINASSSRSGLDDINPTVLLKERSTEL
Kind of data set: COX2 enzyme activity assay. Format: biochemical. The method, then:
as §5

A further data set deals with T3, TxA2 receptor (Homo sapiens, UniProt P21731).
T3 construct: The blood samples were centrifuged to obtain platelets, and residual plasma was removed by washing to prepare platelet suspension; endogenous in cells; host or cells: washed human platelets from healthy donors
T3 sequence (P21731 1-343): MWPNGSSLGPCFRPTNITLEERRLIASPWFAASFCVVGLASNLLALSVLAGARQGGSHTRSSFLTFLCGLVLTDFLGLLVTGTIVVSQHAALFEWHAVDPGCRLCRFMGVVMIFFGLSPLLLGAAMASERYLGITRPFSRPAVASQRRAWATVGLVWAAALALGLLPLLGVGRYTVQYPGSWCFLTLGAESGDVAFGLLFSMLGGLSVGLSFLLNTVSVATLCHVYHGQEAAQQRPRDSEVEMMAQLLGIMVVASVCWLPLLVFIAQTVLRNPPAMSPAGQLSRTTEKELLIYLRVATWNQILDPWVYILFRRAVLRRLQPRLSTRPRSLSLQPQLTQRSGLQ
Kind of data set: Competitive antagonism of U46619-induced platelet aggregation (U46619 concentration-response curves). The class given is cell-based. Conditions: for mode of action at TxA2 receptor: concluded from parallel right shift of U46619 curves; for U46619 concentration-platelet aggregation response curve / maximum level of platelet aggregation: U46619 0.1-10 μM. The method, then:
After human platelet suspension was pretreated with dimethyl sulfoxide (DMSO) or sofalcone (SFC) (FIG. 5A), sofalcone derivative 3 (FIG. 5B), and sofalcone derivative 30 (FIG. 5C), different concentrations of U46619 (0.1-10 μM) were added to stimulate platelet aggregation reaction. Data are presented as mean±standard error of the mean (n=5).
as §2
In the experimental method, a platelet aggregometer (Chrono-Log Co., Havertown, PA, USA) was used for tests. The compound to be tested was added to the platelet suspension and reacted for 3 minutes at 37° C. with stirring (1200 rpm). Then, platelet stimulator U46619 or collagen was added to initiate platelet aggregation, and the test time was 5 minutes. The principle of the platelet aggregation test was: when platelets were stimulated to induce aggregation reaction, the light transmission of the platelet suspension would increase; by calculating changes in light transmission of the platelet suspension before and after being stimulated, the percentage of platelet aggregation could be obtained.
After pretreating human platelet suspensions with dimethylsulfoxide (DMSO), sofalcone (20 μM and 50 μM), and sofalcone derivatives 3 or 30 (0.2 μM and 0.5 μM, respectively), different concentrations of U46619 (0.1-10 μM) were added to stimulate platelet aggregation.

Each structure is given as a SMILES string.

T1 sequence (P23219 24-599): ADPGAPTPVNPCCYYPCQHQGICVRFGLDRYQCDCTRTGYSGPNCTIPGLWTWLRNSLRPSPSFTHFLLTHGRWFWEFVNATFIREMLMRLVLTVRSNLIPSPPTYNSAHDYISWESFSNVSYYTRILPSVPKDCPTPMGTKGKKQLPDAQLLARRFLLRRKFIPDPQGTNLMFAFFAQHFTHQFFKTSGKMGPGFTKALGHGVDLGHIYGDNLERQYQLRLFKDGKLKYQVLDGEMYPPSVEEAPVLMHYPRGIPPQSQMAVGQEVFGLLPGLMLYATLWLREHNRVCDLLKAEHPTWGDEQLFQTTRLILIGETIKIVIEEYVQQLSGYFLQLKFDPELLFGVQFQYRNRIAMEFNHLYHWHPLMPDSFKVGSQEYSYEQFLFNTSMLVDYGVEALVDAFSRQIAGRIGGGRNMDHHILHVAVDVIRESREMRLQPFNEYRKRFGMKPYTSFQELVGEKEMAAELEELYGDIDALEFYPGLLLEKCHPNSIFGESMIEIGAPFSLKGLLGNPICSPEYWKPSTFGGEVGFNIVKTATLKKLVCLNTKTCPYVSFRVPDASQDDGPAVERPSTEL

`CC(=O)Oc1ccccc1C(=O)O` [Aspirin, reference compound]: the “formation of TxB2 induced by arachidonic acid” value (“formation of TxB2 induced” below) in data set [1] was “inhibited”. The values for the IC50 in data set [2] and in [6] were more than 200 µM and 79 µM, respectively. Also, the “carotid artery occlusion time” value in data set [3] (single dose 25 mg/kg) is “prolonged”. Besides, in data set [4] (single dose 25 mg/kg), the tail bleeding time result is recorded as “significantly prolonged”. For the same compound, the “formation of PGE2 induced by arachidonic acid” value (“formation of PGE2 induced” for short) in data set [5] was “inhibited”. Moreover, the inhibition at 200 µM at human recombinant COX1 (read-out: COX1 (Inhibition rate %)) amounted to 26%.

`O=C(O)CCCOc1ccccc1C(=O)/C=C/c1ccc(F)cc1` [Compound 3]: in [1], the “formation of TxB2 induced” value is listed as “inhibited”. The IC50 was 0.07 µM in data set [2] and 0.03 µM in data set [6]. The “COX2 (Inhibition rate %)” value on human recombinant COX2 (10 μM) was 26.7%; on human recombinant COX2 (100 μM), 48.6%. Besides, the “mode of action at TxA2 receptor” value on TxA2 receptor is recorded as “competitively antagonize”. In addition, on TxA2 receptor (pretreatment 0.2 μM and 0.5 μM), the “U46619 concentration-platelet aggregation response curve” value is “shifted parallelly to the right”. On TxA2 receptor (pretreatment 0.2 μM and 0.5 μM), the “maximum level of platelet aggregation” value is listed as “not significantly affected”. Further, in data set [5], the “formation of PGE2 induced” value was “inhibited”. Besides, the “COX1 (Inhibition rate %)” value was found to be 19.1% at human recombinant COX1 (1 μM), 61.6% at human recombinant COX1 (10 μM) and 89.8% at human recombinant COX1 (100 μM). For the same compound, on human recombinant COX1 (human recombinant COX1 and COX2, 1-100 μM), the “COX1 versus COX2 inhibitory effect” value is “better inhibitory effect on COX1”.

As for `CC(C)=CCOc1ccc(/C=C/C(=O)c2ccc(OCC=C(C)C)cc2OCC(=O)O)cc1` [SFC, sofalcone], the “formation of TxB2 induced” value in [1] is “did not inhibit”. The IC50 in [2] turned out to be 16 µM; in [6], 49 µM. For the same compound, in data set [3] (50 mg/kg per day for 4 days), the “carotid artery occlusion time” value is given as “significantly prolonged”. For the same compound, the tail bleeding time result in data set [4] (50 mg/kg per day for 4 days) is “did not affect”. Also, the “mode of action at TxA2 receptor” value at TxA2 receptor is on record as “competitively antagonize”. In addition, at TxA2 receptor (pretreatment 20 μM and 50 μM), the “U46619 concentration-platelet aggregation response curve” value was “shifted parallelly to the right”. Also, the “maximum level of platelet aggregation” value at TxA2 receptor (pretreatment 20 μM and 50 μM) is listed as “not significantly affected”. Also, the “formation of PGE2 induced” value in [5] was “did not inhibit”.

A word on the inhibition: it is the change of the read-out against control, counted positive when it falls.
